Laboratory results reported in patent US8937084B2, “Nitrogen containing morphinan derivatives and the use thereof” (Purdue Pharma L.P., priority 2012, dated 2015).

Biological target: μ-opioid receptor (Homo sapiens (Human), UniProt P35372)
Assay: μ-opioid receptor [35S]GTPγS functional assay, U-2 OS cells
Format: biochemical
Settings: for EC50: GTPγS; for Emax: relative to DAMGO
Protocol: μ-Opioid Receptor Functional Assay Procedures: [^35S]GTPγS functional assays were conducted using freshly thawed μ-receptor membranes prepared in-house from a cell line expressing recombinant μ opioid receptor in a HEK-293, CHO or U-2 OS cell background, or purchased from a commercial source (Perkin Elmer, Shelton, Conn.; or DiscovRx, Fremont, Calif.). Assay reactions were prepared by sequentially adding the following reagents to binding buffer (100 mM NaCl, 10 mM MgCl2, 20 mM HEPES, pH 7.4) on ice (final concentrations indicated): membrane protein (0.026 mg/mL), saponin ([…]), GDP ([…]) and [^35S]GTPγS (0.20 nM; Perkin Elmer, Shelton, Conn.). The prepared membrane solution (190 μl/well) was transferred to 96-shallow well polypropylene plates containing 10 μl of 20× concentrated stock solutions of the agonist [D-Ala^2, N-methyl-Phe^4 Gly-ol^5]-enkephalin (DAMGO) prepared in dimethyl sulfoxide (DMSO). Plates were incubated for 30 min at about 25° C. with shaking. Reactions were terminated by rapid filtration onto 96-well Unifilter GF/B filter plates (Perkin Elmer, Shelton, Conn.) using a 96-well tissue harvester (Perkin Elmer, Shelton, Conn.) followed by three filtration washes with 200 μl of ice-cold wash buffer (10 mM NaH2PO4, 10 mM Na2HPO4, pH 7.4). Filter plates were subsequently dried at 50° C. for 2-3 hours. BetaScint scintillation cocktail (Perkin Elmer, Shelton, Conn.) was added (50 μl/well) and plates were counted using a Packard Top-Count for 1 min/well. Data were analyzed using the sigmoidal dose-response curve fitting functions in GraphPad PRISM v. 3.0, or an in-house function for non-linear, sigmoidal dose-response curve-fitting.
μ-Opioid Receptor Functional Data: μ GTP EC50 is the concentration of a compound providing 50% of the maximal response for the compound at a μ-opioid receptor.
μ GTP Emax (%) is the maximal effect elicited by a compound relative to the effect elicited by DAMGO, a standard μ agonist. Generally, the μ GTP Emax (%) value measures the efficacy of a compound to treat or prevent pain or other Conditions.
The following TABLE 3 provides results on the activity response of certain Compounds of the Invention at the μ- and κ-opioid receptors determined as described above using U-2 OS cells.

In the case of `NC(=O)CN1C[C@H]2[C@H]3Cc4ccc(O)cc4[C@@]2(CCN3CC2CC2)CC1=O` [Compound 4, 2-((4aS,5R,10bS)— 13-(cyclopropylmethyl)-9-hydroxy-2-oxo-4,4-a,5,6-tetrahydro-1H-5,10b-(epiminoethano)benzo[f]isoquinolin-3(2H)-yl)acetamide], the EC50 is reported as 7.05 ± 0.17 nM and the Emax is reported as 39 ± 3.51%.

`O=C1C[C@]23CCN(CC4CC4)[C@H](Cc4ccc(O)cc42)[C@@H]3CN1` [Compound 7, (4aS,5R,10bS)-13-(cyclopropylmethyl)-9-hydroxy-4,4-a,5,6-tetrahydro-1H-5,10b-(epiminoethano)benzo[f]isoquinolin-2(3H)-one] showed an EC50 of 3.43 ± 0.43 nM and an Emax of 40.7 ± 3.18%.
